Assay: Henry solubility constant Hcp at 298.15 K (mol/(m3 Pa))
Conditions: reference: Buttery et al. (1969)

Row | Henry solubility constant Hcp | SMILES
1 | 0.58 | CCCCCCO [1-hexanol]
2 | 0.4 | CCCCCCCCO [1-octanol]
3 | 0.068 | CCCCCC(C)=O [2-heptanone]
4 | 0.027 | CCCCCCCC(C)=O [2-nonanone]
5 | 0.052 | CCCCCCC(C)=O [2-octanone]
6 | 0.16 | CCCC(C)=O [2-pentanone]
7 | 0.016 | CCCCCCCCCC(C)=O [2-undecanone]
8 | 0.086 | CCCC=O [butanal]
9 | 0.037 | CCCCCCC=O [heptanal]
10 | 0.048 | CCCC(=O)OC [methyl butanoate]
11 | 0.086 | COC(C)=O [methyl ethanoate]
12 | 0.027 | CCCCCC(=O)OC [methyl hexanoate]
13 | 0.013 | CCCCCCCC(=O)OC [methyl octanoate]
14 | 0.031 | CCCCC(=O)OC [methyl pentanoate]
15 | 0.057 | CCC(=O)OC [methyl propanoate]
16 | 0.013 | CCCCCCCCC=O [nonanal]
17 | 0.019 | CCCCCCCC=O [octanal]
18 | 0.067 | CCCCC=O [pentanal]

Row | SMILES | Henry solubility constant Hcp
19 | CC(C)=O [propanone] | 0.25

Reference: Sander's compilation of Henry's law constants (doi:10.1021/jf60162a025)
